Assay results reported in US6573252B1, “Medicine nitrate salts” (priority 1998, dated 2003).
Where a name gives a salt, the structure may show the parent alone.

How the values were obtained:
myeloperoxydase (MPO) = assay: Myeloperoxydase activity in intestinal tissue, acute colitis model (2,4,6-trinitrobenzensulphonic acid); format: in vivo; conditions: for Myeloperoxydase activity (unit/mg tissue): rectal route, amount corresponding to 100 mg/kg of 5-ASA, 6 administrations, intestinal tissue (wet)
Experimental: Myeloperoxydase Activity of the 5-Aminosalicylic Acid (4-nitroxy)butyl Ester Compared with that of the Corresponding Hydrochloride and Nitrate Salts, in an Acute Colitis Model
4 groups of 6 animals each have been formed. The groups were treated, respectively, with the carrier (carboxymethylcellulose aqueous solution 1%), 100 mg/Kg of 5-ASA, a 5-ASA-NO2.HCl amount corresponding to 100 mg/kg of 5-ASA, an amount of 5-ASA-NO2.HNO3 correspsonding to 100 mg/kg of 5-ASA.
The animals were treated by rectal route with the above compounds at zero time. After one hour the animals were treated with 0.5 ml of a 60 mg/ml solution of 2,4,6,trinitro-benzensulphonic acid in ethyl alcohol 50%. After two hours the animals were treated again by rectal route with the same compounds and at 12 hour intervals up to a total of 6 administrations.
The tissular levels of the myeloperoxydase (MPO) enzym have been measured which is an inflammatory process marker in various tissues, among which the bony-articular one (C. Rathakrishnan et Al., “Release of oxygen radicals by articular chondrocytes: A study of luminol-dependent chemiluminescence and hydrogen peroxide secretion” J. Bone Miner. Res. 7/10 1139-1148 1992).
The myeloperoxydase activity was measured by using a modified version of the experimental model described by Bradley et al. J. Invest. Dermatol. 78, 206-209, 1982. Samples of intestinal tissue were drawn from each animal, which were suspended in 0.1% of hexadecyltrimethylammonium bromide (50 mg/ml) at a pH 6 and homogenized for 15 seconds (Polytron® PT-7 generator). The samples were frozen and then defrosted three times subsequently before being centrifuged (9,000 g) for 2 minutes in an Eppendorf® Benchtop centrifuge. The myeloperoxydase activity was measured by adding 7 μl of the surnatant to 200 μl of o-dianisidine (Sigma) reactant and measuring the optical density variation at 450 nm in a two minute time in a Microtitre Multiscan®. The reactant contained 0.0005% of hydrogen peroxide as substratum for the myeloperoxydase enzym. One unity of the myeloperoxydase activity was defined as the one capable to convert an hydrogen proxide micromole to water in one minute at 22° C. The results are reported in Table II and are expressed as unit number of the myeloperoxydase activity/tissue mg (wet).

[1] = Gastric toxicity (gastric lesion incidence) after oral administration in fasted rats; format: in vivo; conditions: for Gastric damage (% incidence): rat, in vivo, po, 100 mg/kg
Experimental: Gastric Toxicity of Piroxicam Nitrate Salt (Ex. 1) Compared with Piroxicam
To 3 groups of 10 rats each, kept on empty stomach since 24 hours, orally are administered:
5 ml/Kg of carboxymethylcellulose aqueous suspension 2%.
an amount of nitrate Piroxicam corresponding to 100 mg/kg of Piroxicam in 5 ml/kg of carboxymethylcellulose aqueous suspension 2%.
an amount of hydrocloride Piroxicam corresponding to 100 mg/kg of Piroxicam in 5 ml/kg of carboxymethylcellulose aqueous suspension 2%.
Six hours later the animals are sacrificed and the gastric lesion incidence is evaluated.

[2] = Gastric damage induced by Aspirin, Alendronate compared with Alendronate nitrate salt; conditions: rats, after Aspirin 125 mg/Kg, Alendronate dose 80 mg/Kg p.o.
Experimental: Prevention of the Gastric Damage Induced by Aspirin by Administering Alendronate in Comparison with Alendronate Nitrate Salt
Three groups of 5 rats each were treated by oral route with gastric probe as indicated hereinafter:
I group: treated with Alendronate (Alen.) at the dose of 80 mg/Kg.
II group: 1 h before the Alendronate 80 mg/Kg dose, ASpirin (Asp.) was supplied per os at the dose of 125 mg/Kg.
III group: 1 h before the Alendronate nitrate, (Alen.HNO3) corresponding to the Alendronate 80 mg/Kg dose, Aspirin was supplied per os at the dose of 125 mg/Kg.
The evaluation of the gastric damage was carried out sacrificing the animals three hours after the treatment with Alendronate or Alendronate nitrate.

[3] = Acute toxicity, single oral dose in rats; format: in vivo; conditions: single dose 100 mg/kg orally in carboxymethylcellulose aqueous suspension 2% w/v, observation for 14 days
Experimental: To a group of 10 rats weighing […] a single dose equal to 100 mg/kg of Piroxicam nitrate salt (Example 1), has been administered by cannula orally in a carboxymethylcellulose aqueous suspension 2% w/v.
The animals are kept under obsevation for 14 days.

Nc1ccc(O)c(C(=O)OCCCCO[N+](=O)[O-])c1.O=[N+]([O-])O [5-ASA-NO2.HNO3, Nitrate Salt of the 5-amino-2-hydroxybenzoic Acid (4-nitroxy)butyl Ester]
myeloperoxydase activity (comparison in words) (myeloperoxydase (MPO); acute colitis model, compared with the other groups): lower than that of the other groups
pharmacological activity compared with the unsalified compound (myeloperoxydase (MPO); pharmacological model indicated in the examples): more active than the unsalified compound
Myeloperoxydase activity (unit/mg tissue) (myeloperoxydase (MPO)): 35 ± 13 unit/mg tissue

Cl.Nc1ccc(O)c(C(=O)OCCCCO[N+](=O)[O-])c1 [5-ASA-NO2.HCl, Hydrochloride Salt of the 5-Aminosalicylic Acid (4-nitroxy)-butyl Ester, reference compound]
Myeloperoxydase activity (unit/mg tissue) (myeloperoxydase (MPO)): 111 ± 20 unit/mg tissue

Nc1ccc(O)c(C(=O)O)c1 [Example 5-ASA, 5-aminosalicylic acid, reference compound]
Myeloperoxydase activity (unit/mg tissue) (myeloperoxydase (MPO)): 72 ± 15 unit/mg tissue

CN1C(C(=O)Nc2ccccn2)=C(O)c2ccccc2S1(=O)=O [Piroxicam.HCl, Piroxicam hydrochloride, reference compound]
Gastric damage (% incidence) ([1]; 6 h): 100%

Alendronate Nitrate Salt [Alen.HNO3]
reduction of the level of the gastric damage in comparison with Alendronate [2]: 4 to 5 times

Piroxicam Nitrate Salt [Piroxicam.HNO3]
toxic symptom presence [3]: In no one of the animals of the group the toxic symptom presence was noticed
Gastric damage (% incidence) [1]: 20%
gastric tolerability (comparison in words) ([1]; rats, 100 mg/kg p.o., compared with Piroxicam hydrochloride): improved gastric tolerability compared with Piroxicam hydrochloride
